Data set [1] can be described thus: Half life in rat at 2mg/kg, iv. The format is ADME, organism-based. The note with it: in vivo.
Data set [2] is described as follows: Half life in dog at 0.5 mg/kg, iv. It is filed as ADME, organism-based, Canis lupus familiaris. More on the design: dose 0.5 mg/kg, route intravenous. To be noted: in vivo.
Data set [3] is described as follows: Clearance in rhesus monkey at 2 mg/kg, po and 0.5 mg/kg, iv. It is filed as ADME, organism-based, Macaca mulatta. The note with it: in vivo.
Data set [4] addresses T1, Calcitonin gene-related peptide type 1 receptor (Homo sapiens, UniProt O60894+Q16602). The data set is described as follows: Antagonist activity at human CLR expressed in human HEK293 cells coexpressing human RAMP1 assessed as Inhibition of CGRP-induced cAMP production. It is filed as functional, cell-based. (In general: cAMP levels reflect the balance of adenylyl cyclase and phosphodiesterase activity.)

Data set [5] in a line: Half life in rhesus monkey at 0.5 mg/kg, iv. The note with it: in vivo. The format is ADME, organism-based, Macaca mulatta. Also noted: dose 0.5 mg/kg, route intravenous.
The nature of data set [6]: Oral bioavailability in rat at 10 mg/kg in presence of lmwitor:tween. The format is ADME, organism-based. To be noted: in vivo.
Data set [7] deals with T1, Calcitonin gene-related peptide type 1 receptor. The data set can be described thus: Antagonist activity at human CLR expressed in human HEK293 cells coexpressing human RAMP1 assessed as Inhibition of CGRP-induced cAMP production in the presence of 50% human serum. The format is functional, cell-based.
A short description of data set [8]: Oral bioavailability in rat at 10 mg/kg in presence of methylcellulose. It is filed as ADME, organism-based. To be noted: in vivo.
Data set [9] can be described thus: Clearance in dog at 1 mg/kg, po and 0.5 mg/kg, iv. It is filed as ADME, organism-based, Canis lupus familiaris. The note with it: in vivo.
A short description of data set [10]: Clearance in rat at 10 mg/kg, po and 2 mg/kg, iv. The format is ADME, organism-based. The note with it: in vivo.
Data set [11] has as its system Rhesus monkey. The data set can be described thus: Inhibition of capsaicin-induced vasodilation in orally dosed rhesus monkey at 5.5 uM plasma level. It is filed as functional, organism-based. The note with it: Macaca mulatta.
Data set [12] is described as follows: Half life in rat at 2 mg/kg, iv. To be noted: in vivo. Also noted: dose 2 mg/kg, route intravenous. It is filed as ADME, organism-based.
The target of data set [13] is T1, Calcitonin gene-related peptide type 1 receptor. The data set can be described thus: Displacement of […] expressed in HEK293 cells coexpressing human RAMP1. It is filed as cell-based. On the technique in general: In a radioligand displacement assay an active substance lowers the binding of a labelled ligand.
The nature of data set [14]: Clearance in rat at 10 mg/kg, po or 2 mg/kg, iv. The format is ADME, organism-based. The note with it: in vivo.
A short description of data set [15]: Oral bioavailability in rhesus monkey at 2 mg/kg in presence of methylcellulose. The format is ADME, organism-based, Macaca mulatta. To be noted: in vivo.
Data set [16] can be described thus: Oral bioavailability in dog at 1 mg/kg in presence of methylcellulose. The format is ADME, organism-based, Canis lupus familiaris. To be noted: in vivo.
Data set [17] relates to Rhesus monkey. The data set is described as follows: Inhibition of capsaicin-induced vasodilation in orally dosed rhesus monkey. The note with it: Macaca mulatta. It is filed as functional, organism-based.
Data set [18] can be described thus: Half life in rat at 1 mg/kg, iv. The format is ADME, organism-based. Also noted: dose 1 mg/kg, route intravenous. To be noted: in vivo.
Data set [19] can be described thus: Clearance in rat at 5 mg/kg, po or 1 mg/kg, iv. It is filed as ADME, organism-based. To be noted: in vivo.
Data set [20] in a line: Oral bioavailability in rat at 5 mg/kg in presence of lmwitor:tween. To be noted: in vivo. The format is ADME, organism-based.
Data set [21] is described as follows: Oral bioavailability in rat at 5 mg/kg in presence of PEG400:water. The format is ADME, organism-based. The note with it: in vivo.

Here are results for 17 compounds from ChEMBL document CHEMBL1156995, “Identification of potent, highly constrained CGRP receptor antagonists” (Bioorg Med Chem Lett, 2010).

The half-life is how long it takes for the measured level to halve. A word on the IC50: it is the concentration at which inhibition is half-maximal. Broadly, the bioavailability is dose-corrected exposure relative to a reference, in per cent. A word on the Ki: it is a dissociation constant, usually derived from enzyme kinetics or from competition with a known ligand. In general, EC90 refers to the point of the concentration-response curve where the effect stands at 90%.

Activity calls are given as the source filed them. The calls are words filed in the database; no cut-off is given here.

T1 sequence (Q16602 whole entry, one chain of several): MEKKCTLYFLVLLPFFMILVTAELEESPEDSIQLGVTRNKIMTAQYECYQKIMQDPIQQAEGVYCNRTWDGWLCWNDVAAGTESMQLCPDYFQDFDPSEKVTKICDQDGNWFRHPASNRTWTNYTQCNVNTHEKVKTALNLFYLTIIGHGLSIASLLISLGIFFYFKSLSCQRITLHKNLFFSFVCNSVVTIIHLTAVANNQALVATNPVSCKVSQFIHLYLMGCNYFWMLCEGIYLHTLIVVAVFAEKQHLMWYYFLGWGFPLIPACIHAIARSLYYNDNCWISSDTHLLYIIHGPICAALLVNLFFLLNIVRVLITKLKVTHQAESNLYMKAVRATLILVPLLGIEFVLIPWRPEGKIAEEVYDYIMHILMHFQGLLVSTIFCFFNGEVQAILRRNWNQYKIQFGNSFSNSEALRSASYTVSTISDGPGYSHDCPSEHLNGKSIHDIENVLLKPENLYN

In the case of `CN1C(=O)NC(=O)[C@@]12Cc1cc3ccc(CN4CC5(C)CC(=O)Nc6cccc4c65)nc3cc1C2` (some centres undefined), the half-life was 96 min in [1], 366 min in [2], 102 min in data set [5] and 96 min in data set [12]. Moreover, the clearance turned out to be 5.6 mL/min/kg in [3], 1.6 mL/min/kg in [9], 14 mL/min/kg in [10] and 14 mL/min/kg in data set [14]. Besides, the IC50 in [4] came out at 2.2 nM; in data set [7] it was 6.5 nM. The bioavailability is 34% in data set [6], 45% in [8], 38% in data set [15] and 59% in data set [16]. Besides, the inhibition entry in the data set on Rhesus monkey [11] was “Active”. Also, the Ki in [13] amounted to 0.52 nM. In the data set on Rhesus monkey [17], this compound returned an EC90 of 5500 nM.

For `CN1C(=O)NC(=O)[C@]12Cc1cc3ccc(Cn4c(=O)n(-c5ccccn5)c5ccccc54)nc3cc1C2`, in data set [13], the Ki was determined as 17 nM.

Take `O=C1CC2CN(Cc3ccc4cc5c(cc4n3)C[C@@]3(C5)C(=O)Nc4ncccc43)c3cccc(c32)N1` (some centres undefined): the results for the IC50 in data set [4] and in [7] were 0.86 nM and 4.1 nM, respectively. Further, in data set [18], the half-life is 19.2 min. This compound also showed a clearance in [19] of 19 mL/min/kg. In data set [13], the Ki was found to be 0.55 nM. Further, the bioavailability in data set [20] came out at 8%.

With `CN1C(=O)Cn2c(=O)n(Cc3ccc4cc5c(cc4n3)C[C@@]3(C5)C(=O)Nc4ncccc43)c3cccc1c32`, the IC50 in data set [4] came to 1.2 nM; in data set [7], 95 nM. Further, the Ki in [13] stood at 0.41 nM.

For `CN1C(=O)NC(=O)[C@]12Cc1ccc(NC(=O)Cn3c(=O)n(-c4ccccn4)c4ccccc43)c(F)c1C2`, the Ki in data set [13] was determined as 55 nM.

For the compound `CN1C(=O)NC(=O)[C@@]12Cc1cc3ccc(CN4C(=O)CCc5ccccc54)nc3cc1C2`, the IC50 in data set [4] stood at 50 nM; in [7], 850 nM. For the same compound, the bioavailability in data set [8] is 10%. Also, in [12], the half-life was 42 min. Further, the Ki in data set [13] is 8.9 nM. Besides, the clearance in [14] stood at 38 mL/min/kg.

Regarding `CN1C(=O)Cn2c(=O)n(Cc3ccc4cc5c(cc4n3)C[C@@]3(C5)C(=O)NC(=O)N3C)c3cccc1c32`, the concentration for half-maximal inhibition (IC50) in data set [4] was found to be 33 nM; in data set [7] it was 1200 nM. The Ki in [13] came to 3 nM.

`CN1C(=O)NC(=O)[C@@]12Cc1cc3ccc(Cn4c(=O)n5c6c(cccc64)NC(=O)C5)nc3cc1C2`: the IC50 came out at 1.7 nM in data set [4] and 14 nM in data set [7]. For the same compound, the Ki in data set [13] worked out at 0.3 nM.

On to `CN1C(=O)NC(=O)[C@@]12Cc1cc3nc(Cn4c(=O)n(-c5ccccn5)c5ccccc54)oc3cc1C2`, for which the Ki in data set [13] is 6000 nM.

Turning to `CN1C(=O)NC(=O)C12Cc1cc3ncc(Cn4c(=O)n(-c5ccccn5)c5ccccc54)nc3cc1C2` (centres undefined), the Ki in [13] stood at 185 nM.

`O=C1CCc2ccccc2N1Cc1ccc2cc3c(cc2n1)C[C@@]1(C3)C(=O)Nc2ncccc21`: the IC50 in data set [4] was determined as 4.7 nM; in [7], 81 nM. Also, in [8], the bioavailability stood at 3%. In data set [12], this compound showed a half-life of 21 min. Besides, in [13], the Ki was found to be 1.4 nM. The clearance in data set [14] turned out to be 56 mL/min/kg.

For the compound `CCC12CC(=O)Nc3cccc(c31)N(Cc1ccc3cc4c(cc3n1)C[C@@]1(C4)C(=O)NC(=O)N1C)C2` (some centres undefined), the IC50 was 7.2 nM in data set [4] and 44 nM in [7]. In addition, in data set [8], the bioavailability is 65%. In [12], this compound had a half-life of 66 min. In addition, the Ki in data set [13] was found to be 1.3 nM. Besides, the clearance in [14] was determined as 44 mL/min/kg.

With `CC12CC(=O)Nc3cccc(c31)N(Cc1ccc3cc4c(cc3n1)C[C@@]1(C4)C(=O)Nc3ncccc31)C2` (some centres undefined), the IC50 was determined as 0.52 nM in data set [4] and 1.3 nM in data set [7]. Besides, the bioavailability in data set [6] was determined as 6%. Moreover, the half-life in data set [12] is 37.2 min. In addition, in data set [13], the Ki worked out at 0.12 nM. The clearance in data set [14] was determined as 28 mL/min/kg.

Turning to `CN1C(=O)NC(=O)[C@]12Cc1cc(F)c(NC(=O)Cn3c(=O)n(-c4ccccn4)c4ccccc43)cc1C2`, in data set [13], the Ki is 720 nM.

With `CN1C(=O)NC(=O)[C@@]12Cc1cc3ccc(CN4CC5CC(=O)Nc6cccc4c65)nc3cc1C2` (some centres undefined), the IC50 in data set [4] came out at 7.3 nM; in data set [7] it was 43 nM. The bioavailability in data set [6] is 41%. The same compound had a half-life in [12] of 66 min. The Ki in data set [13] worked out at 1.5 nM. In [14], this compound returned a clearance of 11 mL/min/kg.

Turning to `O=C1Cn2c(=O)n(Cc3ccc4cc5c(cc4n3)C[C@@]3(C5)C(=O)Nc4ncccc43)c3cccc(c32)N1`, the half-inhibitory concentration (IC50) in [4] was determined as 0.077 nM; in data set [7] it was 2.5 nM. Further, the half-life in data set [18] is 27 min. In addition, the clearance in data set [19] amounted to 40 mL/min/kg. Further, the bioavailability in data set [21] was determined as 0%. For the same compound, in [13], the inhibitory constant (Ki) stood at 0.023 nM.

As to `CCC12CC(=O)Nc3cccc(c31)N(Cc1ccc3cc4c(cc3n1)C[C@@]1(C4)C(=O)Nc3ncccc31)C2` (some centres undefined), the concentration for half-maximal inhibition (IC50) came to 0.68 nM in data set [4] and 1.5 nM in data set [7]. In addition, the bioavailability in [6] worked out at 9%. In [12], this compound gave a half-life of 36.6 min. Besides, the Ki in [13] was 0.072 nM. In [14], this compound displayed a clearance of 11 mL/min/kg.
